Measurements published in patent US7387878B2, “Methods for DNA amplification and sequencing” (Yeda Research and Development Co. Ltd., priority 1998, dated 2008).
Values joined by “and” are separate entries in the source; they are usually repeats but may differ in a detail not shown here. Equal values may be shown once. “Also recorded” adds a separate entry of the source. Read-outs that look alike come from different tables or passages of the source.

Key:
Taq DNA polymerase [1] = biological target: T1, Taq DNA polymerase (Thermus aquaticus, UniProt P19821); conditions: DMSO in 10% concentration; cited from earlier work
T1 construct: purchased MBI Fermentas

animals = conditions: cited from earlier work
Taq DNA polymerase [2] = biological target: T1, Taq DNA polymerase; assay: Remaining activity of Taq polymerase after incubation at elevated temperatures; type: biochemical; conditions: for remaining Taq polymerase activity: 1M additive
Protocol: THP(B), THP(A) or glycerol were added from 3M stock solutions (pH 8.8 at 25° C.). The reaction mixtures were overlaid with paraffin oil and incubated at 95° C. or 97° C. Aliquotes (7.5 μl) were taken for polymerase activity assay at different periods of time.

mammalian cells = conditions: cited from earlier work
[3] = tested on: 349 b.p. fragment (66.5% GC content) from Halobacterium marismortui genomic DNA; assay: PCR with THP(B) using Taq DNA polymerase; type: biochemical
Protocol: MgCl2 concentrations of 1.0 mM and 1.75 mM were used in the absence and presence of THP(B), respectively, added from a 3M stock solution (pH 8.8 at 25° C.). […] (primer extension).
PCR reaction was performed by Taq DNA polymerase as described in Materials and Methods, section (vii), using as a template whole genomic DNA of Halobacterium marismortui (66.5% GC) and the 28-mer primers 1 and 2 described in section (i).

calf thymus DNA (42% GC) = assay: DNA melting (absorbance at 260 nm), calf thymus DNA; conditions: 62° C. in aqueous solution
Protocol: (§1) DNA melting studies were conducted in a buffer (1 ml) containing 5.0 mM K2HPO4 and 0.1 mM Na2EDTA at pH 7.5. […] DNA samples were adjusted to O.D260=0.2 and incubated overnight at 37° C. before use, as previously described (Rees et al., 1993). […] The increase in absorbance at 260 nm was monitored in Hewlett Packard 9450A diode array spectrophotometer attached to a temperature programmer and controller. Both the sample and the reference cells were heated together at a rate of 0.5° C./min and the net absorbance was recorded after every 0.5° C. increase. The Tms were determined graphically from the midpoints of the absorbance versus temperature profile.

poly(dA-dT) = assay: DNA melting (absorbance at 260 nm), poly(dA-dT)
Protocol: as §1

[4] = tested on: [d(ATGCAT)]2 (SEQ ID NO:1); assay: Thermal transition of short oligonucleotide by 1H NMR chemical shift; conditions: for Tm: DNA alone 31.5
Protocol: (§2) ^1H NMR measurements were carried out on a Bruker AMX 400 NMR MHZ spectrometer at 400.13 MHZ (equipped with an Aspect 300 control). For the ^1H NMR measurements, 1.0 mM DNA oligonucleotides were dissolved in 0.5 ml phosphate buffer solution (pH 7.2) in D2O (20 mM, for [d(ATGCAT)]2 (SEQ ID NO:1) and 40 mM for [d([…])]2 (SEQ ID NO:2) containing 50 mM NaCl and 0.1 mM EDTA. The solutions were lyophilized and then redissolved in 0.5 ml D2O (99.96%), heated to 65 EC and gradually cooled to 5 EC, and then degassed with argon at room temperature.
(§3) The thermal transitions of the short oligonucleotides [d(ATGCAT)]2 (SEQ ID NO:1) (FIG. 4A) and [d([…])]2 (SEQ ID NO:2) (FIG. 4B) were studied in the absence (open squares) and presence of 0.5M (open circles) and 1.0M (filled squares) THP(B). NMR chemical shift changes of the C4H5 proton of [d(ATGCAT)]2 (SEQ ID NO:1) and of the G1H8 proton of [d([…])]2 (SEQ ID NO:2) were measured as a function of increasing temperatures as described in Materials and Methods section (iii).

[5] = tested on: [d(GCTTAAGC)]2 (SEQ ID NO:2); assay: as above; conditions: for Tm: DNA alone 48.0
Protocol: as §2, §3

[6] = tested on: DNAs of varying base compositions; assay: DNA melting (absorbance at 260 nm), DNAs of varying base compositions
Protocol: as §1

T7 DNA polymerase = T7 DNA polymerase (Escherichia phage T7, UniProt P00581); conditions: 40% formamide; cited from earlier work
DNA = conditions: for each 10% increase in glycerol concentration; cited from earlier work
Klenow DNA polymerase [7] = biological target: T2, Klenow DNA polymerase (Escherichia coli, UniProt P00582); assay: Klenow DNA polymerase activity assay at 37° C.; type: biochemical; conditions: for effect on Klenow polymerase activity: 1.0M additive, separate experiment, data not shown; for effect on Klenow DNA polymerase activity: 5.0M L-proline, 37° C., 6.7, 10.0 and 15.0 mM MgCl2
T2 construct: Klenow fragment of DNA polymerase I; purchased MBI Fermentas
Protocol: (§4) Klenow fragment (0.1 units) was added to the microtubes with reaction mixture pre-heated to 37° C., and following 7.5 minutes incubation at 37° C. (a time-point within the region of linear kinetics determined in a separate experiment, not shown), the reaction microtubes were placed on ice, and the reaction was stopped by addition of 12 μl of 50 mM EDTA and then applied on strips of chromatographic paper (Whatman No. 3). Strips were washed three times by cold TCA 10%, dried and the radioactivity was counted.

Taq polymerase = Taq polymerase (Thermus aquaticus, UniProt P19821); conditions: 95-97° C.; cited from earlier work
[8] = tested on: 349 b.p. fragment (66.5% GC) from Halobacterium marismortui genomic DNA; conditions: PCR with 10-15 units Klenow, denaturation 70° C., FIG. 12
[9] = tested on: Micrococcus lysodeikticus DNA (72% GC); conditions: 6.2M proline
Protocol: as §1

[10] = tested on: 349 b.p. fragment (66.5% GC) from Halobacterium marismortui genomic DNA; conditions: 1.0M proline
Protocol: PCR was performed in 25 μl reaction mixture containing 3 ng of Halobacterium marismortui genomic DNA template, 0.12 nM of each 28-mer oligonucleotide primers 3 and 4 described in section (i) above, 0.5 units of Taq DNA polymerase, 200 μM of each dNTP, in PCR buffer containing: 10 mM Tris-HCl (pH 8.8 at 25° C.), 50 mM KCl, 0.08% Nonidet P40. […] Reaction mixtures were preheated for 3 min at their respective denaturation temperatures, except for reactions performed at Td 95° C., that were preheated for 3 min at 94° C., and then subjected to 35 thermal cycles as follows: (I) 30 sec incubation at 91-95° C., as indicated in each experiment (denaturation step); (ii) 90 sec incubation at 55° C. (primer annealing step); and (iii) 60 sec incubation at 72° C. (primer extension).

[11] = tested on: 349 b.p. fragment (66.5% GC) from Halobacterium marismortui genomic DNA; conditions: 4.0M proline
Protocol: PCR was performed in 25 μl reaction mixture containing 250 ng of Halobacterium marismortui genomic DNA template, 0.12 nM of each 30-mer oligonucleotide primers 5 and 6 described in section (i) above, 0.3 μl of Klentaq1 and Pfu (or Vent) enzymes mixture, prepared as described (Barnes, 1994), 200 μM of each dNTP, in PCR buffer containing: 10 mM Tris-HCl (pH 8.3 at 25° C.) and 50 mM KCl. […] Reaction mixtures were preheated for 1 min at their respective denaturation temperatures, except for reactions performed at Td 95° C., that were preheated for 1 min at 94° C., and then subjected to 35 thermal cycles as follows: (I) 30 sec incubation at 72-95° C., as indicated in each experiment (denaturation step); (ii) 90 sec incubation at 37-55° C., as indicated in each experiment (primer annealing step); and (iii) 7 min incubation at 63-69° C., as indicated in each experiment (primer extension).
Reaction mixtures were preheated for 1 min at their respective denaturation temperatures (77° C. and 75° C.), and then subjected to 35 thermal cycles as follows: (i) 30 sec incubation at 77° C. or 75° C. (denaturation step); (ii) 90 sec incubation at 44° C. (primer annealing step); and (iii) 7 min incubation at 65° C. (primer extension).

Klenow DNA polymerase [12] = biological target: T2, Klenow DNA polymerase; assay: Remaining activity of Klenow DNA polymerase after incubation at 65° C.; type: biochemical; conditions: 5M proline
Protocol: as §4
The microtubes were vortexed and Klenow enzyme was added to the samples. The Klenow DNA polymerase activity assay was performed as described in section (iv) above at 6.7 mM concentration of MgCl2. To each aliquot (5 μl) 20 μl of stock solution containing all other components of the assay were added, making a total reaction volume of 25 μl and a 5-fold dilution of the aliquots.

[13] = 30 min incubation at 97° C., 10% without additives
[14] = 60 min incubation at 97° C., 5% or less without additives

T1 sequence (P19821 whole entry): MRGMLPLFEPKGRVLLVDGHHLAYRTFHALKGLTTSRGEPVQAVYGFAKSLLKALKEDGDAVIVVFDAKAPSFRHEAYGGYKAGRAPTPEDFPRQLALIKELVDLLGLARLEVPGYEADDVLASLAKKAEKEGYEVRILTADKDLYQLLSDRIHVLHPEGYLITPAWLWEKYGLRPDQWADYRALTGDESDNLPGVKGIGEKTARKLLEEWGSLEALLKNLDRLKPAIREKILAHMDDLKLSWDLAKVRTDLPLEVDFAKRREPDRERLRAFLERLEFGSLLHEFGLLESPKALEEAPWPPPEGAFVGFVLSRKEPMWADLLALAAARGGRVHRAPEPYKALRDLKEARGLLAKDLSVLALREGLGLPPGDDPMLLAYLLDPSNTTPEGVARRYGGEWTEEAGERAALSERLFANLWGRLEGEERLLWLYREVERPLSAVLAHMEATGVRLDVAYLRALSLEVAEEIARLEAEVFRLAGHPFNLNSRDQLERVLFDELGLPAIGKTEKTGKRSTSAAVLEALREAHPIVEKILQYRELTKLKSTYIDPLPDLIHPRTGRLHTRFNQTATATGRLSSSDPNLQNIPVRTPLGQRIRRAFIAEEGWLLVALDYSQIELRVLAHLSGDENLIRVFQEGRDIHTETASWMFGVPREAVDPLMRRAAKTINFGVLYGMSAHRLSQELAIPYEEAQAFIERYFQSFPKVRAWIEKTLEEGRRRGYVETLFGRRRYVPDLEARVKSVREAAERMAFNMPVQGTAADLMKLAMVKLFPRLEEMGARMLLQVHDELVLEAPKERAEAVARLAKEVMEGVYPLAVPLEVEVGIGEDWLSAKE
T2 sequence (P00582 324-928): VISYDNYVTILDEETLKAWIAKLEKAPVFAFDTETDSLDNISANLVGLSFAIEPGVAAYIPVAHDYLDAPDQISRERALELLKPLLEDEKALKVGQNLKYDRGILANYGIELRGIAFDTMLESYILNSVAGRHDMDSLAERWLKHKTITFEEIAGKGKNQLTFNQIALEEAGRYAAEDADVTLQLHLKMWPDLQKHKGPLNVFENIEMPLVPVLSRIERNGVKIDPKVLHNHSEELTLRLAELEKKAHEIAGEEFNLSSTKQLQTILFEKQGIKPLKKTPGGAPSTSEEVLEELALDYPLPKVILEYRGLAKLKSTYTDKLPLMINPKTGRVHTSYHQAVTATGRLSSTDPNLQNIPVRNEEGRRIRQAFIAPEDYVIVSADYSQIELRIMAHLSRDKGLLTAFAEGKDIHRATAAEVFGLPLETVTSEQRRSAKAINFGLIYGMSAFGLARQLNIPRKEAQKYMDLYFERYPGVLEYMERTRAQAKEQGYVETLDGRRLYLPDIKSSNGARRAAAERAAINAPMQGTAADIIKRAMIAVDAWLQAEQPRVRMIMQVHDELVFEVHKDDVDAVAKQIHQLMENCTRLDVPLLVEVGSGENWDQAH
Taq polymerase, sequence (P19821 whole entry, the tested form may be a part): as the sequence (P19821 whole entry) above
T7 DNA polymerase, sequence (P0AA25 2-109): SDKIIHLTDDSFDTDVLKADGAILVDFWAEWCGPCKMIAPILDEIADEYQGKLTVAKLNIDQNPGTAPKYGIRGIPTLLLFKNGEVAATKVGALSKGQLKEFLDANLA
T7 DNA polymerase, sequence (P00581 whole entry): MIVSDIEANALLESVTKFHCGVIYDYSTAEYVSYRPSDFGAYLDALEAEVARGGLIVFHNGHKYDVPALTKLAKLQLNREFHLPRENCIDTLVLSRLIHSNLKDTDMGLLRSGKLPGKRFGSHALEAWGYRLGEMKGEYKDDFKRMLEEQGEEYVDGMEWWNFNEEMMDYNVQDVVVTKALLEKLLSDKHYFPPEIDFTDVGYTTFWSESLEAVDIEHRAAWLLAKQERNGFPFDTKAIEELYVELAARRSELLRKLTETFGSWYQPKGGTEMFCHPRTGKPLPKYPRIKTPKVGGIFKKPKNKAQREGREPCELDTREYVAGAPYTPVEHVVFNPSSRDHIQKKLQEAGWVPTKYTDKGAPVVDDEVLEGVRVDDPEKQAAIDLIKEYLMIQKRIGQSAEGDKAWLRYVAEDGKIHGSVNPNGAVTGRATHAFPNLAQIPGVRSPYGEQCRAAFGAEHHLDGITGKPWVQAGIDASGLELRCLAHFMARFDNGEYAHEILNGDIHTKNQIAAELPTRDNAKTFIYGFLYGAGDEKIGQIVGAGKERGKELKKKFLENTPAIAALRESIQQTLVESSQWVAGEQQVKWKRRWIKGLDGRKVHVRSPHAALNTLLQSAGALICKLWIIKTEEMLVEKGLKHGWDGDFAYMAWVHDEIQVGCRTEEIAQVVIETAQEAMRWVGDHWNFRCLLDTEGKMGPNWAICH

## C[S+](C)[O-] [DMSO]
Taq DNA polymerase [1]
  inhibition of Taq DNA polymerase activity: 53%

## CC1=NCC(O)C(C(=O)O)N1 (stereo not shown) [THP(A), 2-methyl-4-carboxy-5-hydroxy-3,4,5,6-tetrahydropyrimidine]
animals; animals
  toxicity: not toxic
Taq DNA polymerase [2]; 97° C., 1M additives, FIG. 5
  effectiveness in stabilizing Taq DNA polymerase (comparison): more effective than THP(B) or glycerol
Taq DNA polymerase [2]; [13]
  remaining Taq polymerase activity: 50% and 55%
Taq DNA polymerase [2]; 60 min incubation at 97° C.
  remaining Taq activity relative to no additives: 10 fold
Taq DNA polymerase [2]; [14]
  remaining Taq polymerase activity: 45% and 55%
Mammalian cells; mammalian cells
  toxicity: not toxic

## CC1=NCCC(C(=O)O)N1 (stereo not shown) [THP(B), 2-methyl-4-carboxy-3,4,5,6-tetrahydropyrimidine]
[3]; 0.5M THP(B), Td 92° C.
  PCR amplification: amplified sequences were produced only in the presence of THP(B)
[3]; 0.5M THP(B), Td 95° C. and 92° C.
  yield and specificity of DNA amplification: improved
[3]; 1.0M THP(B), Td 89° C., 0.5 units Taq
  PCR amplification: markedly lower
[3]; 1.0M THP(B), Td 90° C., 0.5 or 0.75 units Taq
  PCR amplification: specific amplified sequence was generated only in the presence of THP(B)
[3]; 1.0M THP(B), Td 95° C.
  PCR amplification: improved PCR specific amplification
animals; in vivo
  toxicity: not toxic
Calf thymus DNA (42% GC); 3 or 4M THP(B)
  DNA melting temperature: 41 °C
Taq DNA polymerase [2]; [13]
  remaining Taq polymerase activity: 40%
Taq DNA polymerase [2]; [14]
  remaining Taq polymerase activity: 20%
poly(dA-dT); 1-4M THP(B)
  change in melting temperature of poly(dA-dT): did not exhibit any change; also recorded: no change
[4]; 0.5M additive
  decrease of melting temperature: 2 EC
[4]; 0.5 M additive
  Tm: 29.5 °C
[4]; 1.0M additive
  decrease of melting temperature: 3.5 EC
[4]; 1.0 M additive
  Tm: 28.0 °C
[5]; 0.5M additive
  decrease of melting temperature: 3 EC
[5]; 0.5 M additive
  Tm: 45.0 °C
[5]; 1.0M additive
  decrease of melting temperature: 6 EC
[5]; 1.0 M additive
  Tm: 42.0 °C
[6]; 4M THP(B), 39 to 75° C. in its absence
  temperature range in which all DNAs melt: 40-43 °C
Mammalian cells
  toxicity: not toxic

## C[N+](C)(C)CC(=O)O [betaine, Betaine, reference compound]
[4]; 1.0 M additive
  Tm: 29.2 °C
[5]; 1.0M additive
  decrease of melting temperature: −2 EC

## NC=O [formamide]
T7 DNA polymerase
  T7 DNA polymerase activity: completely inactive

## OCC(O)CO [glycerol]
DNA
  lowering of DNA melting temperatures: 2.5-3 °C
Klenow DNA polymerase [7]
  effect on Klenow polymerase activity: stimulative
Taq polymerase
  thermal stability of Taq polymerase: doubling

## O=C(O)[C@@H]1CCCN1 [proline, L-Proline]
[8]
  proline concentration sufficient to confer stability to Klenow polymerase (and conduct successful PCR): 3-5.5 M
Calf thymus DNA (42% GC); 6.2M proline
  DNA melting temperature: 27 °C
[9]
  range of melting higher than DNAs of GC content 42% and 26%: about 5 °C
[10]; denaturation temperature 91° C.
  PCR performance: enabled successful PCR
[10]; denaturation temperature 95° C.
  PCR performance: did not impair PCR performance
[11]; denaturation temperature 75° C.
  PCR performance: but not at 75 °C
[11]; denaturation temperature 77° C.
  PCR performance: enough for successful PCR
poly(dA-dT); 1-5M proline
  change in melting temperature of poly(dA-dT): did not exhibit any change
poly(dA-dT); 5-6.2M proline
  change in melting temperature of poly(dA-dT): small effect
poly(dA-dT); 6.2M proline
  melting lower than DNAs of GC content 42% and 26%: about 15 °C
Klenow DNA polymerase [12]
  half life of Klenow DNA polymerase relative to no additive: 30-50 fold
Klenow DNA polymerase [7]
  effect on Klenow polymerase activity: stimulative
Klenow DNA polymerase [7]; listed as L-proline
  effect on Klenow DNA polymerase activity: only slightly decreased
Klenow DNA polymerase [7]; listed as Proline
  effect on Klenow DNA polymerase activity: only slightly decrease
[6]; 6.2M proline, 38 to 78° C. in its absence
  temperature range in which all DNAs melt: 25-32 °C
[6]; 6.2 M proline, 57-78° C. without
  Tm values of the tested natural DNAs: 28-32 °C
